Test results reported in patent US20240109843A1, “BENZALDEHYDE COMPOUNDS WITH DIRECT POLYMER DESTABILIZING EFFECTS TO TREAT SICKLE CELL DISEASE” (VIRGINIA COMMONWEALTH UNIVERSITY, priority 2018, published 2024).
“And” between values parts separate entries of the source, which are not always exact repeats. Equal values may be shown once.

Columns and labels:
Hb [1] = target: T1, Hb (Homo sapiens, UniProt P69905); assay: Drug partitioning studies, fixed and unfixed Hb adducts in non-sickling AA blood; type: cell-based; design: Hemoglobin modification, studies using non-sickling AA blood; from tissue; host or cells: non-sickling (AA) human blood, red blood cells; conditions: 2 mM; for Fixed Adducts (%) / Unfixed Adduct (%): 6 biological replicates; for Partitioning Ratio (%): fixed relative to unfixed adducts
Method: RBC partitioning studies were conducted both for SS RBCs following sickling studies above, or as separate independent studies with non-sickle blood. Briefly, aliquots of blood samples, which had been incubated with test molecules, were lysed either in deionized water (un-fixed), or in water containing 50 mM sodium borohydride (fixed). Samples were subjected to cation exchange HPLC analyses, as described above. Modified […] (Hb adducts) was determined as a proportion of total Hb in each sample, and partitioning ratio was determined as the relative fraction of Hb modification of fixed samples compared to corresponding non-fixed samples. The partitioning ratio is the relative fraction of Hb that was modified intracellularly by molecules that permeated the RBC membrane, as compared to unfixed adducts which reflect Hb binding without RBC membrane permeation.
Target sequence in this assay (P69905 2-142 limits assumed): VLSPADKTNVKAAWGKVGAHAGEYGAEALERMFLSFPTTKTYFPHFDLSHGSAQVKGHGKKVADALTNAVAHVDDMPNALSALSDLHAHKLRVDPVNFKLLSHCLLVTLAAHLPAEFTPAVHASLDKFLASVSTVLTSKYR
Target sequence in this assay (P68871 2-147 partner limits assumed): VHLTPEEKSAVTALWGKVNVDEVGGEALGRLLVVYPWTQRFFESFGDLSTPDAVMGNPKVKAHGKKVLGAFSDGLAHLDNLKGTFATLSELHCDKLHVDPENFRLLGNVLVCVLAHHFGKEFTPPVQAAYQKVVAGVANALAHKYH

Hb [2] = target: T1, Hb; assay: Hb modification (drug-adduct formation) in SS blood suspensions by cation-exchange HPLC; type: binding; design: Blood suspensions from subjects with homozygous SCD; from tissue; host or cells: blood suspensions (20% hematocrit) from donors with homozygous SCD; lysates of the treated red cells; conditions: 2 mM, 4 biological replicates
Method: All compounds (Comp 1-13) and comparator molecules (VZHE-039, PP-14, INN-310, and Voxelotor) were evaluated following established procedures. Blood samples from individual donors with homozygous SCD (obtained with informed consent) were diluted using Hemox buffer solution with the addition of glucose (10 mM) and BSA (0.2%) to adjust hematocrit of the blood suspensions to 20%, which standardizes the procedure to normalize the ratio of RBCs to drug, for assay consistency and reproducibility. Briefly, blood suspensions were incubated under room air in the presence of various concentrations of test compounds (0-2 mM) at 37° C. for 1 hour in 96-well round bottom plates. Subsequently, the suspensions were incubated with a hypoxic gas mixture (2.5% Oxygen gas/balance Nitrogen gas) at 37° C. for up to 2 hours prior to fixation with 2% glutaraldehyde solution without exposure to air. The fixated blood aliquots were evaluated by microscopic morphological analysis (image analysis on Image J software) to identify the proportion of sickled and non-sickled RBCs, and sickle inhibition calculated based on the % change from negative control (DMSO).
The residual samples were then washed in phosphate-buffered saline, and hemolyzed in hypotonic lysis buffer, with or without sodium borohydride (50 mM). Aliquots obtained from the lysates with or without sodium borohydride (to reduce Schiff base adducts) were also assessed for level of Hb modification (drug-adduct formation) by cation-exchange HPLC (Hitachi D-7000 Series, Hitachi Instruments, Inc., San Jose, CA) with a weak cation-exchange column (Poly CAT A: 50 mm×4.6 mm, Poly LC, Inc., Columbia, MD). Hemoglobin isotype peaks are eluted with a linear gradient of phase B from 0% to 80% at A410 nm (Mobile Phase A: 40 mM Bis-Tris, 2 mM KCN, pH 6.9; Phase B: 40 mM Bis-Tris, 2 mM KCN, 0.2 M sodium chloride, pH 6.55). Clarified lysate from normal human adult […] (Hb A), as well as commercial standards containing approximately equal amounts of Hb F, A, S and C (Helena Laboratories, Beaumont, TX), were utilized as reference isotypes. Reduced samples were used to assess “fixed adduct” formation (dependent on RBC membrane permeability), whereas non-reduced samples assessed drug-adduct formation independent of drug permeability.
Target sequence in this assay (P69905 2-142): as the sequence (P69905 2-142 limits assumed) above
Target sequence in this assay (P68871 with tags, fused parts or gaps E7V partner): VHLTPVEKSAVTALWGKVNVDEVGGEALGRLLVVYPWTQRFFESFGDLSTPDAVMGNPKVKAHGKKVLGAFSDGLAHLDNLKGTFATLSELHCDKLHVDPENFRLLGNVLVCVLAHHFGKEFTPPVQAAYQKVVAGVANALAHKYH

[3] = Single-dose oral pharmacokinetics in rats; type: in vivo, Sprague Dawley rats; conditions: Sprague Dawley, rat; single oral dose 100 mg/kg, male rats, whole blood
Method: Single doses of each compound were administered as oral suspensions by gavage in 0.5% carboxy methylcellulose at 100 mg/kg. Whole blood levels were collected for at least 72 hours after dose administration. Bioanalyses were performed with liquid chromatography-tandem mass spectrometry […].
Single-dose pharmacokinetics (PK) in male Sprague Dawley (SD) rats (n=4) were assessed for each compound, and the maximum or peak whole blood concentration and area under the curve are shown in Table 5.

[4] = system: RBCs from donors with homozygous SCD; assay: Oxygen-independent sickle inhibition in SS blood suspensions under anoxia (100% nitrogen); type: cell-based, human; conditions: anoxia
Method: To establish oxygen-independent sickle inhibition, the incubation chamber was subsequently opened and exposed to room air for 15 minutes to ensure complete re-oxygenation and reversal of the sickled cells to normal round cells. Reversal was confirmed by microscopy. The incubation chamber was then closed, and the assay was repeated with incubation in 100% nitrogen gas for 1 hour (for screening), or up to 2.5 h (for time-course studies), with collection and fixation of blood aliquots at defined intervals. Aliquot samples were again subjected to microscopic morphological analysis of bright field images to identify the proportion of sickled and non-sickled cells, and sickle inhibition calculated.

Hb [5] = target: T1, Hb; assay: Oxygen equilibrium curve (OEC) studies with normal whole blood; type: cell-based; design: Hemoglobin modification, studies using non-sickling AA blood; from tissue; host or cells: non-sickling (AA) human blood, red blood cells; conditions: normal whole blood, 0.5, 1, 2 mM
Method: Oxygen equilibrium curve (OEC) studies to determine the effect of the compounds on Hb affinity for oxygen were conducted following standard procedure. Whole blood (30% hematocrit) was incubated in the absence or presence of compounds (0.5 mM, 1.0 mM and 2.0 mM) solubilized in DMSO. […] After equilibration, the sample was removed via syringe and aspirated into an ABL 700 series table top automated blood gas analyzer (Radiometer America, Inc., Westlake, OH) to determine total hemoglobin (tHb), hematocrit (Hct), pH, pCO2, partial pressure of oxygen (pO2), and the Hb-O2 saturation (sO2) values. The measured values of pO2 and sO2 at each oxygen saturation level were then subjected to nonlinear regression analysis using the software Scientist (Micromath, Salt Lake City UT) with the following equation: […]
Aromatic aldehydes are known to prevent hypoxia-induced Hb S polymerization by increasing the Hb affinity for oxygen. We therefore tested the PP compounds in a dose-dependent manner (0.5, 1, 2 mM) for their effect on Hb oxygen binding property. […] These findings confirmed that the potent in vitro activity previously seen in TD7 was at least conserved in the novel PP compounds.
Target sequence in this assay (P69905 2-142 limits assumed): as the sequence (P69905 2-142 limits assumed) above
Target sequence in this assay (P68871 2-147 partner limits assumed): as the sequence (P68871 2-147 partner limits assumed) above

intracellular Hb = target: T2, intracellular Hb (Mus musculus, UniProt P01942); assay: In vivo modification of intracellular Hb in wild-type mice; design: species or system C57BL/6 mice; conditions: IP 150 mg/kg, 30% PEG300, 6 h
T2 construct: from tissue; host or cells: blood (red cell lysates) of dosed C57BL/6 mice
T2 sequence (P01942 2-142 limits assumed): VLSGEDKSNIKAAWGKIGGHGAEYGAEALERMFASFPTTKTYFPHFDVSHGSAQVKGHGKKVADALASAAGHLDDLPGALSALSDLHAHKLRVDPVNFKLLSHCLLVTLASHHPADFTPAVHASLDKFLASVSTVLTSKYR
T2 sequence (P02088 2-147 partner limits assumed): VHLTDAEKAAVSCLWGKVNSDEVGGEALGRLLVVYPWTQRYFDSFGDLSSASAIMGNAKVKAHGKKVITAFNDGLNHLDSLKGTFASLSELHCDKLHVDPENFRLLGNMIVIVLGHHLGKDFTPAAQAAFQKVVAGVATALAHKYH
Method: We tested in vivo pharmacologic (pharmacodynamics) effects of select PP compounds in C57BL/6 mice. The animals were treated with a single intraperitoneal (IP) (150 mg/kg body weight) dose of PP6, PP10, PP14, and TD7, which were formulated with 30% PEG300. Blood samples were obtained prior to treatment (0) and 1, 3 and 6 h post-treatment, via submandibular bleeding, and subjected to hemolysis using standard methods. Clarified lysates, free of cell debris and red blood cell ghosts were analyzed by cation-exchange HPLC to determine the levels of drug-modified hemoglobin (adducts); and to conduct oxygen equilibrium studies to determine degrees of shift in p50 values using methodologies described earlier for in vitro studies on human samples. In a subsequent follow-up experiment, a new excipient obtained from Catalent Pharma Solutions was also used to formulate PP14 and used for a single intraperitoneal (IP) and oral (150 mg/kg body weight) dose. Blood samples were obtained prior to treatment (0) and 1, 3 or 5 h post-treatment, via submandibular bleeding, and used to determine the levels of drug-modified hemoglobin (adducts); and to conduct oxygen equilibrium studies to determine degrees of shift in p50 values as described above.

sickle red blood cells = assay: Antisickling study with human sickle blood under 2.5% oxygen; type: cell-based; conditions: 0.5, 1 and 2 mM, sickle RBCs
Method: Blood suspensions from subjects with homozygous SCD (resuspended in Hemox™ buffer to a final hematocrit 20%) were incubated under air in the absence or presence of the compounds (0.5 mM, 1 mM and 2 mM) at 37° C. for 1 h to ensure that binding had attained equilibrium. The suspensions were then incubated under hypoxic conditions (2.5% oxygen/97.5% nitrogen) at 37° C. for 1 h. Aliquot samples were fixed with 2% glutaraldehyde solution without exposure to air, and then subjected to microscopic morphological analysis of bright field images (at 40× magnification) of single layer cells on an Olympus BX40 microscope fitted with an Infinity Lite B camera (Olympus), and the coupled Image Capture software. The residual samples were washed in phosphate-buffer saline, and hemolyzed in hypotonic lysis buffer for subsequent Hb-modification and oxygen equilibrium analyses.
The studies described above were conducted using normal whole blood. Next, we investigated whether the improvement in Hb oxygen affinity and the compounds sustained activity also translated to similar effects in SS blood from SCD patients. […] At 1 mM, PP8 and PP9 inhibited nearly 100% of sickling, while PP2, PP6, PP14 inhibited sickling by more than 70%. […] It is clear that the modifications of the present compounds has led to significant improvement in antisickling activity.

SMILES	Fixed Adducts (%) (Hb [1])	Unfixed Adduct (%) (Hb [1])	Partitioning Ratio (%) (Hb [1])	Hb Modification (%) (Hb [2])	effect on Hb oxygen binding property (OEC) (Hb [5])	other results
O=Cc1c(O)cccc1OCc1ccncc1 [Comp 3, 2-hydroxy-6-(pyridin-4-ylmethoxy)benzaldehyde]	60.1 ± 3.0	60.0 ± 3.3	100.1 ± 0.9	74.4 ± 10.6		
O=Cc1c(O)cccc1OCc1cncc(F)c1 [Comp 4, 2-((5-fluoropyridin-3-yl)methoxy)-6-hydroxybenzaldehyde]	85.9 ± 7.1	88.8 ± 6.2	96.9 ± 5.73	92.9 ± 9.8		AUC(0-inf) [3]: 831000 ng·h/mL and 3360 µM·h; Cmax [3]: 59800 ng/mL and 242 µM; half-life [3]: 5.9 h
O=Cc1c(O)cccc1OCc1cccnc1F [Comp 6, 2-((2-fluoropyridin-3-yl)methoxy)-6-hydroxybenzaldehyde]	67.3 ± 12.1	67.1 ± 10.3	100.0 ± 2.8	73.8 ± 15.4		AUC(0-inf) [3]: 180000 ng·h/mL and 728 µM·h; Cmax [3]: 12100 ng/mL and 49 µM; half-life [3]: 8.2 h
O=Cc1c(O)cccc1OCc1cccnc1Cl [Comp 7, 2-((2-chloropyridin-3-yl)methoxy)-6-hydroxybenzaldehyde]	59.6 ± 5.7	60.2 ± 5.7	99.0 ± 3.1	73.91 ± 9.8		
O=Cc1c(O)cccc1OCc1ncccc1Cl [Comp 8, 2-((3-chloropyridin-2-yl)methoxy)-6-hydroxybenzaldehyde]	85.6 ± 2.5	84.8 ± 7.5	101.3 ± 6.3	100.0 ± 0.0		AUC(0-inf) [3]: 269000 ng·h/mL and 1020 µM·h; Cmax [3]: 20000 ng/mL and 76 µM; half-life [3]: 9.5 h
O=Cc1c(F)cc(F)cc1OCc1ccccn1 [Comp 9, 2,4-difluoro-6-(pyridin-2-ylmethoxy)benzaldehyde]	72.7 ± 4.1	69.4 ± 7.5	105.2 ± 5.9	69.1 ± 11.8		polymer destabilizing effect / sickle inhibition in anoxia (in words) [4]: completely negates the polymer destabilization effects
O=Cc1c(O)cccc1OCc1cncnc1 [Comp 10, 2-hydroxy-6-(pyrimidin-5-ylmethoxy)benzaldehyde]	94.8 ± 2.8	96.3 ± 3.0	98.5 ± 2.7	100.0 ± 0.0		AUC(0-inf) [3]: 693000 ng·h/mL and 3010 µM·h; Cmax [3]: 36200 ng/mL and 157 µM; half-life [3]: 4.7 h
O=Cc1c(O)cccc1OCc1ncccn1 [Comp 11, 2-hydroxy-6-(pyrimidin-2-ylmethoxy)benzaldehyde]	88.2 ± 2.1	87.7 ± 4.3	100.7 ± 3.0	98.1 ± 3.2		
COC(=O)c1cccc(COc2cccc(O)c2C=O)n1 [PP10, Methyl 6-((2-formyl-3-hydroxyphenoxy)methyl)picolinate]						modified Hb (intracellular Hb): 9.6±1.9%
COc1cc(C=O)ccc1O [vanillin, reference compound]					very weak functional effect	sickling inhibition (in words) (sickle red blood cells): minimal sickling inhibition

The next lines start with results.

Fixed Adducts (%) (Hb [1])	Unfixed Adduct (%) (Hb [1])	Partitioning Ratio (%) (Hb [1])	Hb Modification (%) (Hb [2])	effect on Hb oxygen binding property (OEC) (Hb [5])	SMILES	other results
				minimal effect	COC(=O)c1ccc(COc2ccc(OC)cc2C=O)nc1 [PP1, Methyl 6-((2-formyl-4-methoxyphenoxy)methyl)nicotinate]	
				minimal effect	COC(=O)c1ccnc(COc2ccc(OC)cc2C=O)c1 [PP4]	
				most significant activities	COC(=O)c1ccnc(COc2cccc(O)c2C=O)c1 [PP7, Methyl 2-((2-formyl-3-hydroxyphenoxy)methyl)isonicotinate]	
				most significant activities	COC(=O)c1cncc(COc2ccc(OC)cc2C=O)c1 [PP12, Methyl 5-((2-formyl-4-methoxyphenoxy)methyl)nicotinate]	
